Assay [1] has as its target T1, Bcl-2-like protein 1 (Homo sapiens, UniProt Q07817). Description: Fluorescence Polarization (FP) Assay and FL5.12 Cellular Assay. The following applies: pH 7.4; 25 °C. As to the method:
The binding affinities (Ki) of compounds were determined using fluorescence polarization assays (FPA) that measure their ability to competitively displace a Bad-derived peptide from Bcl-xL. […] Compound efficacy (EC50) in a cellular context was evaluated by testing their ability to reverse the protection from cytokine withdrawal afforded by overexpression of Bcl-xL in the IL-3 dependent murine pro-B cell line FL5.12.

Assay [2] has as its target Apoptosis regulator Bcl-2 (Homo sapiens, UniProt P10415). Description: Fluorescence Polarization Assay and FL5.12 Cellular Assay. How it is done: (§1) The binding affinities (Ki) of compounds were determined using fluorescence polarization assays (FPA) that measure their ability to competitively displace a Bad-derived peptide from Bcl-xL. Compound efficacy (EC50) in a cellular context was evaluated by testing their ability to reverse the protection from cytokine withdrawal afforded by overexpression of Bcl-xL in the IL-3 dependent murine pro-B cell line FL5.12.

Assay [3] is described as follows: The binding affinities (Ki) of compounds were determined using fluorescence polarization assays (FPA) that measure their ability to competitively displace a Bad-derived peptide from Bcl-xL. IC50 values were binding affinities measured in the presence of 10% human serum. Compound efficacy (EC50) in a cellular co. To be noted: pH 7.4. For orientation: Polarisation of emitted light reports the rotation of a fluorescent probe.

A short description of assay [4]: The binding affinities (Ki) of compounds were determined using fluorescence polarization assays (FPA) that measure their ability to competitively displace a Bad-derived peptide from Bcl-xL. Compound efficacy (EC50) in a cellular context was evaluated by testing their ability to reverse the protection from cytokine w.
Assay [5] concerns the target T1, Bcl-2-like protein 1. Description: Fluorescence Polarization Assay and FL5.12 Cellular Assay. As to the method: as §1

Several values for one entry are separate records, joined by “and”; a condition that tells them apart may be missing. Equal values may be shown once.

T1 sequence (Q07817 whole entry): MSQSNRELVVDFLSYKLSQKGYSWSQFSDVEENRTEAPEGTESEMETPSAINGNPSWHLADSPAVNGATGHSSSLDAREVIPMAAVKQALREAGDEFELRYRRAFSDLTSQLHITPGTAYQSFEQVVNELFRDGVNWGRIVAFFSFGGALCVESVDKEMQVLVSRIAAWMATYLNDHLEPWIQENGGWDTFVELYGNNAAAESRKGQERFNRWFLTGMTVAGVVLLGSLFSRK
Chain of Apoptosis regulator Bcl-2 (P10415 whole entry): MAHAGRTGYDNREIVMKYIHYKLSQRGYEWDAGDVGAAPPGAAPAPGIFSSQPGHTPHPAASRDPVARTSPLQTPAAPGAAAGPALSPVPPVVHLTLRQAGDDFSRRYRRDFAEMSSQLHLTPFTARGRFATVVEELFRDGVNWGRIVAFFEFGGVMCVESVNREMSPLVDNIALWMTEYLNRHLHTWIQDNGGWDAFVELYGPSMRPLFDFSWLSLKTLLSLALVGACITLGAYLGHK

For `CCCCC1(OC)CCN(c2ccc(C(=O)NS(=O)(=O)c3ccc(N[C@H](CCN(C)C)CSc4ccccc4)c([N+](=O)[O-])c3)cc2)CC1` [4-(4-butyl-4-methoxypiperidin-1-yl)-N-[(4-{[(2R)-4-(dimethylamino)-1-(phenylsulfanyl)butan-2-yl]amino}-3-nitrobenzene)sulfonyl]benzamide], in assay [1], the EC50 (as a rule, the midpoint of the concentration-response curve) was 8000 nM; the IC50 – broadly, the midpoint of a concentration-inhibition curve – was 312 nM; affinity was put at a Ki of 1.3 nM. In assay [2], the response was half-maximal at 3000 nM (EC50); the Ki (as a rule, the dissociation constant of the complex between target and ligand, obtained from inhibition or displacement) was found to be 20 nM.

In the case of `COC1(Cc2cccc(Cl)c2)CCN(c2ccc(C(=O)NS(=O)(=O)c3ccc(N[C@H](CCN(C)C)CSc4ccccc4)c([N+](=O)[O-])c3)cc2)CC1` [4-{4-[(3-chlorophenyl)methyl]-4-methoxypiperidin-1-yl}-N-[(4-{[(2R)-4-(dimethylamino)-1-(phenylsulfanyl)butan-2-yl]amino}-3-nitrobenzene)sulfonyl]benzamide], the EC50 stood at 250 nM in assay [3] and 300 nM in assay [4].

As for `COC1(Cc2ccc(Cl)cc2)CCN(c2ccc(C(=O)NS(=O)(=O)c3ccc(N[C@H](CCN(C)C)CSc4ccccc4)c([N+](=O)[O-])c3)cc2)CC1` [4-{4-[(4-chlorophenyl)methyl]-4-methoxypiperidin-1-yl}-N-[(4-{[(2R)-4-(dimethylamino)-1-(phenylsulfanyl)butan-2-yl]amino}-3-nitrobenzene)sulfonyl]benzamide], the EC50 worked out at 400 nM in assay [3] and 500 nM in assay [4].

As for `CN(C)CC[C@H](CSc1ccccc1)Nc1ccc(S(=O)(=O)NC(=O)c2ccc(N3CCC(=Cc4ccc(Cl)cc4)CC3)cc2)cc1[N+](=O)[O-]` [4-{4-[(4-chlorophenyl)methylidene]piperidin-1-yl}-N-[(4-{[(2R)-4-(dimethylamino)-1-(phenylsulfanyl)butan-2-yl]amino}-3-nitrobenzene)sulfonyl]benzamide], the values for the EC50 in assay [3] and in assay [4] were 620 nM and 1180 nM, respectively.

With `CN(C)CC[C@H](CSc1ccccc1)Nc1ccc(S(=O)(=O)NC(=O)c2ccc(N3CCN(Cc4ccccc4-c4ccc(S(C)(=O)=O)cc4)CC3)cc2)cc1[N+](=O)[O-]` [N-[(4-{[(2R)-4-(dimethylamino)-1-(phenylsulfanyl)butan-2-yl]amino}-3-nitrobenzene)sulfonyl]-4-(4-{[2-(4-methanesulfonylphenyl)phenyl]methyl}piperazin-1-yl)benzamide], the Ki in assay [5] came to 9.1 nM. For the same compound, in assay [4], the EC50 was 460 nM and 530 nM.

For the compound `CN(C)CC[C@H](CSc1ccccc1)Nc1ccc(S(=O)(=O)NC(=O)c2ccc(N3CCC(=Cc4ccccc4C(F)(F)F)CC3)cc2)cc1[N+](=O)[O-]` [N-[(4-{[(2R)-4-(dimethylamino)-1-(phenylsulfanyl)butan-2-yl]amino}-3-nitrobenzene)sulfonyl]-4-(4-{[2-(trifluoromethyl)phenyl]methylidene}piperidin-1-yl)benzamide], the concentration giving a half-maximal response (EC50) worked out at 150 nM in assay [3] and 210 nM in assay [4].

Turning to `CN(C)CC[C@H](CSc1ccccc1)Nc1ccc(S(=O)(=O)NC(=O)c2ccc(N3CCC(=Cc4ccc(C(F)(F)F)cc4)CC3)cc2)cc1[N+](=O)[O-]` [N-[(4-{[(2R)-4-(dimethylamino)-1-(phenylsulfanyl)butan-2-yl]amino}-3-nitrobenzene)sulfonyl]-4-(4-{[4-(trifluoromethyl)phenyl]methylidene}piperidin-1-yl)benzamide], the EC50 in assay [3] worked out at 2600 nM; in assay [4], 3600 nM.

In the case of `COC1(CC(C)(C)C)CCN(c2ccc(C(=O)NS(=O)(=O)c3ccc(N[C@H](CCN(C)C)CSc4ccccc4)c([N+](=O)[O-])c3)cc2)CC1` [N-[(4-{[(2R)-4-(dimethylamino)-1-(phenylsulfanyl)butan-2-yl]amino}-3-nitrobenzene)sulfonyl]-4-[4-(2,2-dimethylpropyl)-4-methoxypiperidin-1-yl]benzamide], the EC50 in assay [3] worked out at 750 nM; in assay [4], 1000 nM.

Turning to `COC1(CC(C)C)CCN(c2ccc(C(=O)NS(=O)(=O)c3ccc(N[C@H](CCN(C)C)CSc4ccccc4)c([N+](=O)[O-])c3)cc2)CC1` [N-[(4-{[(2R)-4-(dimethylamino)-1-(phenylsulfanyl)butan-2-yl]amino}-3-nitrobenzene)sulfonyl]-4-[4-methoxy-4-(2-methylpropyl)piperidin-1-yl]benzamide], the EC50 was 580 nM in assay [3] and 700 nM in assay [4].

Turning to `COC1(Cc2ccccc2F)CCN(c2ccc(C(=O)NS(=O)(=O)c3ccc(N[C@H](CCN(C)C)CSc4ccccc4)c([N+](=O)[O-])c3)cc2)CC1` [N-[(4-{[(2R)-4-(dimethylamino)-1-(phenylsulfanyl)butan-2-yl]amino}-3-nitrobenzene)sulfonyl]-4-{4-[(2-fluorophenyl)methyl]-4-methoxypiperidin-1-yl}benzamide], the EC50 was determined as 180 nM in assay [3] and 100 nM in assay [4].

Consider `CN(C)CC[C@H](CSc1ccccc1)Nc1ccc(S(=O)(=O)NC(=O)c2ccc(N3CCC(=Cc4ccccc4F)CC3)cc2)cc1[N+](=O)[O-]` [N-[(4-{[(2R)-4-(dimethylamino)-1-(phenylsulfanyl)butan-2-yl]amino}-3-nitrobenzene)sulfonyl]-4-{4-[(2-fluorophenyl)methylidene]piperidin-1-yl}benzamide], for which the EC50 in assay [3] amounted to 250 nM; in assay [4], 350 nM.

With `COc1ccccc1C=C1CCN(c2ccc(C(=O)NS(=O)(=O)c3ccc(N[C@H](CCN(C)C)CSc4ccccc4)c([N+](=O)[O-])c3)cc2)CC1` [N-[(4-{[(2R)-4-(dimethylamino)-1-(phenylsulfanyl)butan-2-yl]amino}-3-nitrobenzene)sulfonyl]-4-{4-[(2-methoxyphenyl)methylidene]piperidin-1-yl}benzamide], the EC50 was 300 nM in assay [3] and 250 nM in assay [4].

`COc1ccccc1CC1(OC)CCN(c2ccc(C(=O)NS(=O)(=O)c3ccc(N[C@H](CCN(C)C)CSc4ccccc4)c([N+](=O)[O-])c3)cc2)CC1` [N-[(4-{[(2R)-4-(dimethylamino)-1-(phenylsulfanyl)butan-2-yl]amino}-3-nitrobenzene)sulfonyl]-4-{4-methoxy-4-[(2-methoxyphenyl)methyl]piperidin-1-yl}benzamide]: the values for the concentration for a half-maximal effect (EC50) in assay [3] and in assay [4] were 150 nM and 250 nM, respectively.

For the compound `COC1(Cc2ccccc2C)CCN(c2ccc(C(=O)NS(=O)(=O)c3ccc(N[C@H](CCN(C)C)CSc4ccccc4)c([N+](=O)[O-])c3)cc2)CC1` [N-[(4-{[(2R)-4-(dimethylamino)-1-(phenylsulfanyl)butan-2-yl]amino}-3-nitrobenzene)sulfonyl]-4-{4-methoxy-4-[(2-methylphenyl)methyl]piperidin-1-yl}benzamide], the EC50 in assay [3] worked out at 150 nM; in assay [4], 200 nM.

On to `COC1(Cc2ccccc2-c2ccccc2)CCN(c2ccc(C(=O)NS(=O)(=O)c3ccc(N[C@H](CCN(C)C)CSc4ccccc4)c([N+](=O)[O-])c3)cc2)CC1` [N-[(4-{[(2R)-4-(dimethylamino)-1-(phenylsulfanyl)butan-2-yl]amino}-3-nitrobenzene)sulfonyl]-4-{4-methoxy-4-[(2-phenylphenyl)methyl]piperidin-1-yl}benzamide], for which the EC50 turned out to be 35 nM in assay [3] and 20 nM in assay [4].

On to `COC1(Cc2ccc(-c3ccccc3)cc2)CCN(c2ccc(C(=O)NS(=O)(=O)c3ccc(N[C@H](CCN(C)C)CSc4ccccc4)c([N+](=O)[O-])c3)cc2)CC1` [N-[(4-{[(2R)-4-(dimethylamino)-1-(phenylsulfanyl)butan-2-yl]amino}-3-nitrobenzene)sulfonyl]-4-{4-methoxy-4-[(4-phenylphenyl)methyl]piperidin-1-yl}benzamide], for which the EC50 is 600 nM in assay [3] and 1100 nM in assay [4].

These data come from BindingDB's records for doi:10.1021/jm061152t (Abbott Laboratories, 2007).
